# Results taken from patent US20220395472A1 (Dermavant Sciences GmbH, priority 2021, published 2022).
# System: adults with plaque psoriasis
# Assay: Long-term open-label extension study (PSOARING 3): Physician Global Assessment (PGA), treatment episodes, treatment success, remittive effect
# Format: in vivo, human
# Settings: for Proportion of subjects who never achieved PGA = 0 or 1 throughout the study / Proportion of subjects who achieved PGA = 0 or 1 at least 1 time during the study: entering with PGA ≥ 2
# Experimental: This extension study consisted of up to 40 weeks of treatment and a 4 week, safety follow up period.
# At the completion of the Week 12 visit of the DB, pivotal Phase 3 study, eligibility of the subjects opting to enroll in this extension study was confirmed. Study visits during the treatment period for all subjects occurred every 4 weeks (±3 days). A phone call was performed at Week 2 (Day 15). Unscheduled visits may have occurred, as needed. Subjects who withdrew from this study before Week 40 returned to the study center for an Early Termination visit. The total duration of this extension study participation was 44 weeks. Subjects in this study were treated as follows based on their PGA score from the Week 12 visit in the DB, pivotal Phase 3 study (Study DMVT 505 3001 or Study DMVT 505 3002).
# The PGA was used to assess the primary efficacy endpoint in this study. The PGA is a clinical tool for assessing the current state/severity of a subject's psoriasis at a given time point. It is a static, 5 point, morphological assessment of overall disease severity, as determined by the Investigator, using the clinical characteristics of erythema, scaling, and plaque thickness/elevation as guidelines; higher PGA scores represent more severe disease (0=clear, 1=almost clear, 2=mild, 3=moderate, and 4=severe). The BSA affected was not considered in scoring of the PGA. Variations of the PGA are frequently used in clinical studies because it is a simple assessment, similar to those used in clinical practice. The PGA was performed first, prior to the % BSA, PASI, and LTS assessments.
# Time to event parameters, such as the time from treatment success to subsequent worsening (PGA≥2) or duration of treatment episode, were summarized by the Kaplan Meier product limit method using OC.
# [1] = entering with PGA = 0, Kaplan-Meier, Overall
# [2] = entering with PGA = 0, Kaplan-Meier, Tapinarof (Pivotal) group
# [3] = entering with PGA = 0, Kaplan-Meier, Vehicle (Pivotal) group
# [4] = entering with PGA = 0, Tapinarof (Pivotal) group
# [5] = entering with PGA = 0, Vehicle (Pivotal) group
# [6] = entering with PGA ≥ 1, Kaplan-Meier, Vehicle (Pivotal) group
# [7] = entering with PGA ≥ 1, Tapinarof (Pivotal) group
# [8] = entering with PGA ≥ 1, Vehicle (Pivotal) group
# [9] = final analysis, overall, baseline
smiles,measurement,setting,value
"CC(C)c1c(O)cc(/C=C/c2ccccc2)cc1O [Tapinarof, 3,5-Dihydroxy-4-isopropyl-trans-stilbene]",PGA 2 - Mild,"Week 40 OC, Vehicle (Pivotal)",35 (31.0) n (%)
same,PGA 3 - Moderate,"Week 40 OC, Vehicle (Pivotal)",15 (13.3) n (%)
same,PGA 4 - Severe,"Week 40 OC, Vehicle (Pivotal)",0 (0.0) n (%)
same,PGA Change from Baseline: Improved by 1,"Week 40 OC, Vehicle (Pivotal)",41 (36.3) n (%)
same,PGA Change from Baseline: Improved by 2,"Week 40 OC, Vehicle (Pivotal)",27 (23.9) n (%)
same,PGA Change from Baseline: Improved by 3,"Week 40 OC, Vehicle (Pivotal)",17 (15.0) n (%)
same,PGA Change from Baseline: Improved by 4,"Week 40 OC, Vehicle (Pivotal)",1 (0.9) n (%)
same,PGA Change from Baseline: No Change,"Week 40 OC, Vehicle (Pivotal)",19 (16.8) n (%)
same,PGA Change from Baseline: Worsened by 1,"Week 40 OC, Vehicle (Pivotal)",7 (6.2) n (%)
same,PGA Change from Baseline: Worsened by 2,"Week 40 OC, Vehicle (Pivotal)",1 (0.9) n (%)
same,PGA Change from Baseline: Worsened by 3,"Week 40 OC, Vehicle (Pivotal)",0 (0.0) n (%)
same,PGA Change from Baseline: Worsened by 4,"Week 40 OC, Vehicle (Pivotal)",0 (0.0) n (%)
same,"Durability of Response, No. of Subjects","Wk. 0, Overall",240
same,"Durability of Response, No. of Subjects","Wk. 0, Tapinarof→Tapinarof",18
same,"Durability of Response, No. of Subjects","Wk. 4, Overall",273
same,"Durability of Response, No. of Subjects","Wk. 4, Tapinarof→Tapinarof",216
same,"Durability of Response, No. of Subjects","Wk. 4, Vehicle→Tapinarof",57
same,"Durability of Response, No. of Subjects","Wk. 8, Overall",330
same,"Durability of Response, No. of Subjects","Wk. 8, Tapinarof→Tapinarof",243
same,"Durability of Response, No. of Subjects","Wk. 8, Vehicle→Tapinarof",87
same,"Durability of Response, No. of Subjects","Wk. 12, Overall",334
same,"Durability of Response, No. of Subjects","Wk. 12, Tapinarof→Tapinarof",233
same,"Durability of Response, No. of Subjects","Wk. 16, Overall",336
same,"Durability of Response, No. of Subjects","Wk. 16, Tapinarof→Tapinarof",239
same,"Durability of Response, No. of Subjects","Wk. 16, Vehicle→Tapinarof",97
same,"Durability of Response, No. of Subjects","Wk. 20, Overall",358
same,"Durability of Response, No. of Subjects","Wk. 20, Tapinarof→Tapinarof",250
same,"Durability of Response, No. of Subjects","Wk. 24, Overall",346
same,"Durability of Response, No. of Subjects","Wk. 24, Tapinarof→Tapinarof",236
same,"Durability of Response, No. of Subjects","Wk. 28, Overall",336
same,"Durability of Response, No. of Subjects","Wk. 28, Tapinarof→Tapinarof",230
same,"Durability of Response, No. of Subjects","Wk. 32, Overall",339
same,"Durability of Response, No. of Subjects","Wk. 32, Tapinarof→Tapinarof",233
same,"Durability of Response, No. of Subjects","Wk. 36, Overall",340
same,"Durability of Response, No. of Subjects","Wk. 36, Tapinarof→Tapinarof",225
same,"Durability of Response, No. of Subjects","Wk. 40, Overall",330
same,"Durability of Response, No. of Subjects","Wk. 40, Tapinarof→Tapinarof",224
same,"Time to First Worsening (PGA ≥ 2), Median (95% CI)","entering with PGA = 0 (n=78), Kaplan-Meier, Overall, interim","115 (85.0, 162.0) days"
same,"Time to First Worsening (PGA ≥ 2), 25th percentile (95% CI)",[1],"54 (29.0, 66.0) days"
same,"Time to First Worsening (PGA ≥ 2), 75th percentile (95% CI)",[1],"222 (169.0, 309.0) days"
same,"Time to First Worsening (PGA ≥ 2), 25th percentile (95% CI)",[2],"54 (29.0, 76.0) days"
same,"Time to First Worsening (PGA ≥ 2), 75th percentile (95% CI)",[2],"196 (168.0, 309.0) days"
same,"Time to First Worsening (PGA ≥ 2), Median (95% CI)",[2],"114 (85.0, 142.0) days"
same,"Time to First Worsening (PGA ≥ 2), 25th percentile (95% CI)",[3],"66 (42.0, NE) days"
same,"Time to First Worsening (PGA ≥ 2), Median (95% CI)",[3],"281 (42.0, NE) days"
same,Proportion of subjects who experienced PGA ≥ 2 at least 1 time during the study,"entering with PGA = 0, Overall",59/78 (75.6) %
same,Proportion of subjects who never experienced PGA ≥ 2 throughout the study,"entering with PGA = 0, Overall",19/78 (24.4) %
same,Proportion of subjects who experienced PGA ≥ 2 at least 1 time during the study,"entering with PGA = 0, Overall, listed as tapinarof",75.6%
same,Proportion of subjects who experienced PGA ≥ 2 at least 1 time during the study,[4],56/73 (76.7) %
same,Proportion of subjects who never experienced PGA ≥ 2 throughout the study,[4],17/73 (23.3) %
same,Proportion of subjects who experienced PGA ≥ 2 at least 1 time during the study,[5],3/5 (60.0) %
same,Proportion of subjects who never experienced PGA ≥ 2 throughout the study,[5],2/5 (40.0) %
same,"Time to First Achieving PGA = 0, 25th percentile","entering with PGA ≥ 1, Kaplan-Meier, Overall",141 days
same,"Time to First Achieving PGA = 0, 25th percentile","entering with PGA ≥ 1, Kaplan-Meier, Overall, listed as tapinarof",141 days
same,"Time to First Achieving PGA = 0, 25th percentile","entering with PGA ≥ 1, Kaplan-Meier, Tapinarof (Pivotal) group",113 days
same,"Time to First Achieving PGA = 0, 25th percentile","entering with PGA ≥ 1, Kaplan-Meier, Tapinarof (Pivotal) group, listed as tapinarof",113 days
same,"Time to First Achieving PGA = 0, 25th percentile",[6],169 days
same,"Time to First Achieving PGA = 0, Median",[6],313 days
same,"Time to First Achieving PGA = 0, 25th percentile","entering with PGA ≥ 1, Kaplan-Meier, Vehicle (Pivotal) group, listed as tapinarof",169 days
same,Proportion of subjects who achieved PGA = 0 at least 1 time during the study,"entering with PGA ≥ 1, Overall",221/681 (32.5) %
same,Proportion of subjects who never achieved PGA = 0 throughout the study,"entering with PGA ≥ 1, Overall",460/681 (67.5) %
same,Proportion of subjects who achieved PGA = 0 at least 1 time during the study,"entering with PGA ≥ 1, Overall, listed as tapinarof",32.5%
same,Proportion of subjects who achieved PGA = 0 at least 1 time during the study,[7],139/432 (32.2) %
same,Proportion of subjects who never achieved PGA = 0 throughout the study,[7],293/432 (67.8) %
same,Proportion of subjects who achieved PGA = 0 at least 1 time during the study,"entering with PGA ≥ 1, Tapinarof (Pivotal) group, listed as tapinarof",32.2%
same,Proportion of subjects who achieved PGA = 0 at least 1 time during the study,[8],82/249 (32.9) %
same,Proportion of subjects who never achieved PGA = 0 throughout the study,[8],167/249 (67.1) %
same,Proportion of subjects who achieved PGA = 0 at least 1 time during the study,"entering with PGA ≥ 1, Vehicle (Pivotal) group, listed as tapinarof",32.9%
same,Proportion of subjects who never achieved PGA = 0 or 1 throughout the study,Overall,222/520 (42.7) %
same,Proportion of subjects who achieved PGA = 0 or 1 at least 1 time during the study,"Overall, interim",298/520 (57.3) %
same,Proportion of subjects who achieved PGA = 0 or 1 at least 1 time during the study,"Overall, interim, listed as tapinarof",57.3%
same,Proportion of subjects who achieved PGA = 0 or 1 at least 1 time during the study,Tapinarof (Pivotal) group,154/288 (53.5) %
same,Proportion of subjects who never achieved PGA = 0 or 1 throughout the study,Tapinarof (Pivotal) group,134/288 (46.5) %
same,Proportion of subjects who achieved PGA = 0 or 1 at least 1 time during the study,"Tapinarof (Pivotal) group, listed as tapinarof",53.5%
same,Proportion of subjects who achieved PGA = 0 or 1 at least 1 time during the study,Vehicle (Pivotal) group,144/232 (62.1) %
same,Proportion of subjects who never achieved PGA = 0 or 1 throughout the study,Vehicle (Pivotal) group,88/232 (37.9) %
same,Proportion of subjects who achieved PGA = 0 or 1 at least 1 time during the study,"Vehicle (Pivotal) group, listed as tapinarof",62.1%
same,Patients entering with PGA≥2 who achieved PGA 0 or 1 at least once during the study,final analysis,58.2%
same,Patients who achieved complete disease clearance (PGA=0) at least once during the study,"final analysis, 312/763",40.9%
same,participants with PGA=0 or 1,"final analysis, overall, Week 40",44.3%
same,participants with PGA=0,[9],10.4%
same,participants with PGA=0 or 1,[9],31.6%
same,mean total duration of remittive effect,"final analysis, patients entering with, or achieving, PGA=0 (n=312)",130 days
